One series has as its system Ovine Laminitis. Put plainly: Histological evaluation of treatment in an acute model of ovine laminitis (lactic acid infusion + Compound 48/80). It is filed as in vivo. Conditions: Group 2: Nedocromil sodium (42 mg/kg) + lactic acid infusion + Compound 48/80 (1 mg/kg); anesthetized sheep; hematoxylin and eosin sections. As to the method:
Laminitis can be induced in vivo through systemic acidosis. This study initiated laminitis in anesthetized sheep by inducing acidosis for the purpose of measuring the level of inflammation in the hoof vascular bed associated with initiation of laminitis. Adult Suffolk sheep (at least 6 months old) weighing at least 60 kg were obtained for the study. Animals were housed and research procedures were performed according to the standards provided in the Guide for the Care and Use of Laboratory Animals, 7th Edition, Revised 1996, National Academy Press, Washington, DC. During acclimation, sheep were pasture-housed with access to feed, water, and shelter. Sheep were fed a standard diet of hay and alfalfa in addition to pasture feed. One day prior to surgery, each animal was transferred to an indoor facility with single animal runs. […] The runs had automatic watering devices and animals were fed in steel feeders. Animals were acclimated for a minimum of one day prior to surgery. Sheep were fasted approximately 16 hours overnight on the day prior to surgery. Two sheep served as terminal controls after prolonged infusion of lactic acid and the mast cell activator 48/80. Systemic blood pH was lowered to approximately […], the animals euthanized, and the hooves observed histopathologically. […]

For the next series, the system named is Bovine Laminitis. It is filed as in vivo, Holstein calves. The source says:
To test the effectiveness of nedocromil sodium to prevent laminitis in cattle, 4 Holstein calves weighing between 325 and 350 pounds were selected for the study and treated as shown in Table 11.
Starting with day one through day four, and continuing day six through day seven, calves 1 and 2 received Nedocromil sodium pretreatment (1.5 grams infused through the jugular vein) while calves 3 and 4 received no treatment. On each of days one through four and days six through seven, blood samples were obtained from all four calves. No treatments were administered on days eight through ten. On day eleven, calves 1 and 2 were administered 2 grams of Nedocromil sodium. Shortly thereafter, 3.5 pounds of corn starch and 1.5 pounds of sugar mixed in water along with 6×10^11 lactic acid producing and histamine producing organisms were administered to all four calves by releasing the mixture into the rumen of each animal. The process of administering the carbohydrate plus lactic acid producing and histamine producing organisms is known to induce acidosis in cattle.
The calves' behavior was observed, blood samples taken, and temperatures measured over the next 72 hours.

The subject of series [1] is Rattus norvegicus basophilic leukemia cells. Put plainly: Lactic acid-stimulated histamine release from basophilic leukemia cells (GC-MS). It is filed as cell-based. The procedure: The immortal cell culture line of Rattus norvegicus basophilic leukemia cells was subcultured and incubated at 37° C. overnight. […] After incubation, 50 μL of the supernatant was removed from the cells and stored at −80° C. or derivatized for GC-MS analysis.
The supernatant was mixed with 135 μl of an acetone reaction solution (ethanol, triethylamine, and 9-methylanthracene) in a 0.5 ml microtube. After mixing for 10 seconds, 55 μl of a chloroform derivatization solution containing […] ethylchloroformate was added and mixed for an additional 10 seconds. Then, 350 μL purified water was added and the two phases allowed to separate for 60 seconds. The organic phase was aspirated and placed into a 2 mL autosampler amber vial with glass inserts and dried with anhydrous sodium sulfate before being capped with GC vial snap caps.
The organic phase samples were dried and analyzed on an Agilent GC/MS 6890/5975C system with MS Chem Station software. Gas chromatography was carried out using a fused silica DB-WAX precolumn (0.2 m×0.25 mm, dF=0.25 μm), and a fused silica DB-WAX separation column (4 m×0.25 mm, dF=0.25 μm). Ultra high purity He was used as the carrier gas.
The GC parameters were set as follows: injection time was set to 5 μl using the splitless mode. After 120 seconds the split valve was opened with a 40 mL/minute split flow and front inlet temperature was held at 150° C. The oven temperature was ramped, starting at 60° C. for 2 minutes then increased at 50° C./minute to 160° C., then increased at 20° C./minute to 260° C. and held for 2.5 minutes. The MS detector was maintained at 300° C., with a solvent delay of 7 minutes, ion m/z 192 at 7.0-8.7 minutes, dwell time 100 ms, low-mass resolution; ion m/z 166, m/z 154 at 8.7-11.5 minutes, dwell time per ion 100 ms, low-mass resolution. […]

Here are results for 1 compound from patent US9333191B2, “Mast cell stabilizers to prevent or treat laminitis” (WILLOWCROFT PHARM INC., priority 2004, dated 2016).

Entries after “also recorded” stand apart in the source; their conditions may differ. Structures can show the parent of a compound that is named as a salt.

As for `CCCc1c2oc(C(=O)O)cc(=O)c2cc2c(=O)cc(C(=O)O)n(CC)c12` [Nedocromil sodium, disodium salt of 9-ethyl-6,9-dihydro-4,6-dioxo-10-propyl-4H-pyrano[3,2-g]-quinoline-2,8-dicarboxylic acid], in the series on Ovine Laminitis, the “Findings (histology of hoof sections, inflammation)” value is listed as “No inflammation was observed; also recorded: effectively reduced short-term inflammation; also recorded: No significant findings”. The “Toxicity and/or side effects” value with Bovine Laminitis (bovine, in vivo) is given as “lack of toxicity and/or side effects”. Moreover, in the series with Bovine Laminitis (calves 1 and 2, nedocromil sodium 1.5 g via jugular vein on days 1-4 and 6-7, 2 g on day 11 before carbohydrate mixture, observed 72 hours), the “Protection from lactic acidosis” value is listed as “protected from lactic acidosis”. Further, the “Histamine Levels” value came out at 15.810 in series [1] (Lactic acid + 1 μl nedocromil sodium) and 14.470 in series [1] (Lactic acid + 2 μl nedocromil sodium). Moreover, the “Inhibition of histamine release” value in series [1] (lactic acid-stimulated cells, increasing levels of nedocromil sodium) is reported as “effective in inhibiting histamine release”.
